Tests used:
Assay in all cases: relative viability (nuclei count vs DMSO), 5 days (fraction); higher = more cells survive
MLN4924 + Foretinib = compound: NS(=O)(=O)OC[C@@H]1C[C@@H](n2ccc3c(N[C@H]4CCc5ccccc54)ncnc32)C[C@@H]1O [MLN4924] + COc1cc2c(Oc3ccc(NC(=O)C4(C(=O)Nc5ccc(F)cc5)CC4)cc3F)ccnc2cc1OCCCN1CCOCC1 [Foretinib] (partner 0.25 µM)
Summary of the method: (§1)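 A single step with final 0.05% Triton X-100, 1% formaldehyde and 1 ug/ml Hoechst fixed the cells and stained nuclei 5 days after treatment. Lung cancer cell lines in 1536-well plates had been treated by pin tool the day after seeding with one drug alone or a fixed anchor-drug dose plus five library-drug doses (not always all listed) in √10 steps, and nuclei were counted on 4× images. Relative viability is the ratio of nuclei in treated wells to nuclei in vehicle wells, taken as the median of duplicate plates.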

Carboplatin + Linsitinib = compound: C1CC(C1)(C(=O)O)C(=O)O.[NH2-].[NH2-].[Pt+2] [Carboplatin] + C[C@]1(O)C[C@@H](c2nc(-c3ccc4ccc(-c5ccccc5)nc4c3)c3c(N)nccn32)C1 [Linsitinib] (partner 1 µM)
Summary of the method: as §1

GSK126 + Navitoclax = compound: CC[C@H](C)N1C=C(C2=C(C=C(C=C21)C3=CN=C(C=C3)N4CCNCC4)C(=O)NCC5=C(C=C(NC5=O)C)C)C [GSK126] + CC1(C)CCC(c2ccc(Cl)cc2)=C(CN2CCN(c3ccc(C(=O)NS(=O)(=O)c4ccc(N[C@H](CCN5CCOCC5)CSc5ccccc5)c(S(=O)(=O)C(F)(F)F)c4)cc3)CC2)C1 [Navitoclax] (partner 0.5 µM)
Summary of the method: as §1

MLN4924 + Alpelisib = compound: NS(=O)(=O)OC[C@@H]1C[C@@H](n2ccc3c(N[C@H]4CCc5ccccc54)ncnc32)C[C@@H]1O [MLN4924] + Cc1nc(NC(=O)N2CCC[C@H]2C(N)=O)sc1-c1ccnc(C(C)(C)C(F)(F)F)c1 [Alpelisib] (partner 2 µM)
Summary of the method: as §1

Cell Line | relative viability (MLN4924 + Foretinib; first compound 0.04 µM) | relative viability (MLN4924 + Foretinib; first compound 0.1265 µM) | relative viability (MLN4924 + Foretinib; first compound 0.4 µM) | relative viability (MLN4924 + Foretinib; first compound 1.265 µM) | relative viability (MLN4924 + Foretinib; first compound 4 µM) | relative viability (Carboplatin + Linsitinib; first compound 0.08 µM) | relative viability (Carboplatin + Linsitinib; first compound 0.253 µM) | relative viability (Carboplatin + Linsitinib; first compound 0.8 µM) | relative viability (Carboplatin + Linsitinib; first compound 2.53 µM) | relative viability (Carboplatin + Linsitinib; first compound 8 µM) | relative viability (GSK126 + Navitoclax; first compound 0.08 µM) | relative viability (GSK126 + Navitoclax; first compound 0.253 µM) | relative viability (GSK126 + Navitoclax; first compound 0.8 µM) | relative viability (GSK126 + Navitoclax; first compound 2.53 µM) | relative viability (GSK126 + Navitoclax; first compound 8 µM) | relative viability (MLN4924 + Alpelisib; first compound 0.04 µM) | relative viability (MLN4924 + Alpelisib; first compound 0.1265 µM) | relative viability (MLN4924 + Alpelisib; first compound 0.4 µM) | relative viability (MLN4924 + Alpelisib; first compound 1.265 µM) | relative viability (MLN4924 + Alpelisib; first compound 4 µM)
LK-2 | 1.35 | 0.676 | 0.621 | 0.265 | 0.222 | 0.634 | 0.765 | 0.458 | 0.428 | 0.726 | 0.957 | 0.772 | 0.819 | 0.789 | 0.756 | 0.991 | 0.886 | 0.667 | 0.267 | 0.299
HCC-827 | 0.993 | 0.591 | 0.568 | 0.238 | 0.144 | 1.04 | 0.891 | 0.857 | 0.936 | 0.955 | 1.07 | 1.03 | 0.987 | 0.967 | 0.95 | 0.893 | 0.47 | 0.595 | 0.234 | 0.159
NCI-H322M | 1.12 | 1.22 | 0.801 | 0.284 | 0.357 | 0.915 | 0.956 | 0.785 | 0.812 | 0.799 | 1.19 | 1.35 | 1.11 | 1.22 | 1.17 | 0.783 | 0.786 | 0.713 | 0.259 | 0.321
IA-LM | 0.765 | 0.329 | 0.135 | 0.0463 | 0.0394 | 0.617 | 0.766 | 0.632 | 0.582 | 0.461 | 0.702 | 0.691 | 0.758 | 0.761 | 0.947 | 0.494 | 0.2 | 0.153 | 0.0773 | 0.0621
NCI-H727 | 0.863 | 0.737 | 0.515 | 0.285 | 0.335 | 0.456 | 0.298 | 0.314 | 0.347 | 0.277 | 0.444 | 0.354 | 0.51 | 0.408 | 0.361 | 0.474 | 0.292 | 0.245 | 0.194 | 0.213
NCI-H1944 | 0.771 | 0.58 | 0.301 | 0.182 | 0.161 | 1.24 | 1.09 | 1.16 | 1.29 | 0.898 | 1.28 | 1.02 | 1.01 | 0.996 | 1.2 | 1.02 | 1.02 | 1.04 | 0.23 | 0.188
BEN | 0.491 | 0.307 | 0.219 | 0.169 | 0.129 | 1.01 | 1.05 | 0.722 | 0.748 | 0.777 | 0.0742 | 0.0598 | 0.0517 | 0.0958 | 0.0522 | 0.868 | 0.458 | 0.372 | 0.151 | 0.147
CAL-12T | 1.01 | 1.03 | 0.463 | 0.422 | 0.181 | 0.803 | 0.913 | 0.838 | 0.809 | 0.797 | 1.27 | 1.27 | 0.967 | 1.1 | 1.33 | 1.09 | 1.18 | 0.39 | 0.529 | 0.191
EBC-1 | 0.109 | 0.15 | 0.147 | 0.082 | 0.0997 | 0.957 | 0.993 | 0.896 | 0.918 | 0.835 | 0.449 | 0.407 | 0.365 | 0.477 | 0.362 | 0.78 | 0.768 | 0.276 | 0.132 | 0.151
NCI-H2085 | 1.04 | 0.855 | 0.809 | 0.655 | 0.401 | 0.943 | 0.967 | 0.845 | 0.858 | 0.764 | 1.16 | 1.12 | 1.19 | 1.09 | 1.19 | 0.921 | 1.01 | 0.94 | 0.743 | 0.416
NCI-H1703 | 0.267 | 0.226 | 0.19 | 0.173 | 0.248 | 1.84 | 1.04 | 0.829 | 1.32 | 0.813 | 1.49 | 0.942 | 1.02 | 0.898 | 0.748 | 0.22 | 0.177 | 0.189 | 0.135 | 0.121
EKVX | 0.718 | 0.748 | 0.59 | 0.135 | 0.155 | 1.13 | 1.07 | 0.849 | 0.847 | 0.893 | 0.984 | 0.95 | 0.902 | 0.97 | 0.853 | 0.926 | 0.748 | 0.519 | 0.164 | 0.144
201T | 1.23 | 0.842 | 0.561 | 0.194 | 0.175 | 1.06 | 1.04 | 0.976 | 1 | 0.962 | 1.18 | 1.27 | 1.27 | 1.26 | 1.32 | 1.24 | 1.11 | 1.17 | 0.344 | 0.392
NCI-H2023 | 0.987 | 0.719 | 0.406 | 0.0781 | 0.0729 | 0.745 | 0.644 | 0.73 | 0.576 | 0.205 | 1.04 | 0.984 | 1.04 | 1.09 | 0.995 | 0.731 | 0.528 | 0.224 | 0.0584 | 0.0729
NCI-H1395 | 0.951 | 0.818 | 0.538 | 0.41 | 0.362 | 1.02 | 1.05 | 0.82 | 0.751 | 0.576 | 1.59 | 1.04 | 1.09 | 1.33 | 0.95 | 1.05 | 0.812 | 0.553 | 0.343 | 0.365
NCI-H2347 | 0.832 | 0.906 | 0.567 | 0.528 | 0.402 | 1.05 | 1.04 | 0.967 | 0.893 | 0.841 | 1.03 | 0.679 | 0.688 | 0.799 | 0.772 | 1.02 | 0.865 | 0.638 | 0.33 | 0.382

Source: the supplement of paper PMC10307832
